According to article PMC7206119, “RIP1 inhibition blocks inflammatory diseases but not tumor growth or metastases” (Cell Death and Differentiation, 2019):

Tests used:
Experiment in all cases: biochemical
Design in all cases: DiscoverX kinase panel, active-site competition binding (KINOMEscan type), percent of control at one concentration
Details in all cases: competition binding, percent of control
[1] = target: WNK3 (Homo sapiens, UniProt Q9BYP7)
Description: (§1) To investigate the potential therapeutic benefit of inhibiting RIP1, we developed GNE684 or (S)-N-((S)-7-methoxy-1-methyl-2-oxo-2,3,4,5-tetrahydro-1H-pyrido[3,4-b]azepin-3-yl)-5-phenyl-6,7-dihydro-5H-pyrrolo[1,2-b][1,2,4]triazole-2-carboxamide with cross-species potency against RIP1, exquisite kinase selectivity, and favorable pharmacological properties (Fig. 1a–h, S1, Tables S1 and S2, SI file 1). […] (Fig. 1b, S1, and Table S1). […] GNE684 inhibited human RIP1 potently in vitro, and mouse and rat RIP1 with slightly less potency (Fig. 1d). Accordingly, it inhibited TNF-induced necroptosis in human HT-29, mouse L929, or rat H9c2 cells (Fig. 1e). The cellular potency of GNE684 was confirmed in a human whole blood assay using TBZ (TNF, IAP antagonist BV6, and pan-caspase inhibitor zVAD) or LZ (LPS plus zVAD) to trigger necroptosis and the release of IL-1α and IL-1β (Fig. 1f).

[2] = target: NEK9 (Homo sapiens, UniProt Q8TD19)
NEK9, sequence (Q8TD19 whole entry): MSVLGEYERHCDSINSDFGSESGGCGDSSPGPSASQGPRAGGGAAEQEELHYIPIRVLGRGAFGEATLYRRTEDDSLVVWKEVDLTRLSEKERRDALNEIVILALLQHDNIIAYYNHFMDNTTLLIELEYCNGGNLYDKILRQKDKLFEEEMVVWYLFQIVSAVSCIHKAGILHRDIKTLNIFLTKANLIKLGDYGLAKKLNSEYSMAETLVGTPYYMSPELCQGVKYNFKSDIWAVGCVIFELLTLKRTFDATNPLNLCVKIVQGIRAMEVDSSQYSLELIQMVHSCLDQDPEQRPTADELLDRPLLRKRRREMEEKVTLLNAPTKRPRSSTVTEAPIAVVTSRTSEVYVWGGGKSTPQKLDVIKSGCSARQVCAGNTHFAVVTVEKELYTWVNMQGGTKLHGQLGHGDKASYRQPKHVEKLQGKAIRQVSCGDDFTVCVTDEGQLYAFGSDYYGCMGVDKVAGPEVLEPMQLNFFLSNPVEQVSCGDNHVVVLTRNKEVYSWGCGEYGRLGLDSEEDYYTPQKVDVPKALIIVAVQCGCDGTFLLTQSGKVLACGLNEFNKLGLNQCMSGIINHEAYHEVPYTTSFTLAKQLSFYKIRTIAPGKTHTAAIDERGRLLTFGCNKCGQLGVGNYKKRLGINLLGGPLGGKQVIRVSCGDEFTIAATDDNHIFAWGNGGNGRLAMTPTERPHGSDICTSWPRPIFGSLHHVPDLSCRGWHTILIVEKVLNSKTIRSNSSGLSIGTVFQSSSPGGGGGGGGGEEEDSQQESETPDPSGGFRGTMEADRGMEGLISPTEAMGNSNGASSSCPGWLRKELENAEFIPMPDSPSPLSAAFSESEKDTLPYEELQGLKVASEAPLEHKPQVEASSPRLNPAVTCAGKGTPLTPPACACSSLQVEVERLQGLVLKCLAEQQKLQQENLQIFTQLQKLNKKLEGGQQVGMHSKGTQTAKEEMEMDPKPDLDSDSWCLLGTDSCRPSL
Description: as §1

[3] = target: HIPK1 (Homo sapiens, UniProt Q86Z02)
Description: as §1

[4] = target: HUNK (Homo sapiens, UniProt P57058)
Description: as §1

[5] = target: FLT3(N841I) (Homo sapiens, UniProt P36888, N841I)
Description: as §1

[6] = target: IRAK1 (Homo sapiens, UniProt P51617)
Description: as §1

[7] = target: T1, DRAK2 (Homo sapiens, UniProt O94768)
T1 construct: gene STK17B
T1 sequence (O94768 whole entry): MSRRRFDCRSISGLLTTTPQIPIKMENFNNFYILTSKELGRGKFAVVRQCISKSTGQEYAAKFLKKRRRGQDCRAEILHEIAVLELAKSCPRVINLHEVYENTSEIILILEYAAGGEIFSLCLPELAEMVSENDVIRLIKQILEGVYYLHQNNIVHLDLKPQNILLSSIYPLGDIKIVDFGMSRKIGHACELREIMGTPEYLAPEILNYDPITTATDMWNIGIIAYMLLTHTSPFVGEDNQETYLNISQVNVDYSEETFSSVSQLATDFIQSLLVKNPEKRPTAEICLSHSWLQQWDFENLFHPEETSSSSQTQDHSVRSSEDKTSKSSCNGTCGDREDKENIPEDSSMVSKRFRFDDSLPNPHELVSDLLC
Description: as §1

[8] = target: T2, CDC2L2 (Homo sapiens, UniProt Q9UQ88)
T2 construct: gene CDK11A
Description: as §1

[9] = target: INSR (Homo sapiens, UniProt P06213)
Description: as §1

[10] = target: MUSK (Homo sapiens, UniProt O15146)
MUSK, sequence (O15146 whole entry): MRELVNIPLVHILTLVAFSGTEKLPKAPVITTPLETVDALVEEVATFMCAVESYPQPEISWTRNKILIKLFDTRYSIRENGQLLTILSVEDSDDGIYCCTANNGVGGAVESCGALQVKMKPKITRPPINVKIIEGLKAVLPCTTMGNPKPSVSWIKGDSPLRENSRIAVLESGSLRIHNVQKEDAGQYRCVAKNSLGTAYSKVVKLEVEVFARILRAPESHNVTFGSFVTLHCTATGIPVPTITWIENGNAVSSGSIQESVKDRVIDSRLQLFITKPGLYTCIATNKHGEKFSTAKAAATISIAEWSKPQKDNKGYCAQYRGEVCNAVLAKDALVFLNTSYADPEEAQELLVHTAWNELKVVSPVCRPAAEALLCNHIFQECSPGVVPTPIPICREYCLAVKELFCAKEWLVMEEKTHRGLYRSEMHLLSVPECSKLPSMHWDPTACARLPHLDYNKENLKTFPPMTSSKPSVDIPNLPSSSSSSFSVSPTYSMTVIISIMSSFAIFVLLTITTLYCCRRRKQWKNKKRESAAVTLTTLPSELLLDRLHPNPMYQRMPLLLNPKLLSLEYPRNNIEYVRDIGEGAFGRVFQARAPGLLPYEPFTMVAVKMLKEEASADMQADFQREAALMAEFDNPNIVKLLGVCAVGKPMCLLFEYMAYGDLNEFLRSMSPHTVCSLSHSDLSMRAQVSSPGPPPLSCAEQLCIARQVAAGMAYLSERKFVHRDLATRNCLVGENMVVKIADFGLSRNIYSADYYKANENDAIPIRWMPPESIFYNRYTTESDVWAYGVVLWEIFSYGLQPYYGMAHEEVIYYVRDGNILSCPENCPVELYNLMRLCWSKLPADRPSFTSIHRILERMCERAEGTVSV
Description: as §1

[11] = target: SGK2 (Homo sapiens, UniProt Q9HBY8)
Description: as §1

[12] = target: GRK7 (Homo sapiens, UniProt Q8WTQ7)
Description: as §1

[13] = target: T3, MLK1 (Homo sapiens, UniProt P80192)
T3 construct: gene MAP3K9
Description: as §1

[14] = target: T4, p38-alpha (Homo sapiens, UniProt Q16539)
T4 construct: gene MAPK14
Description: as §1

[15] = target: T5, CTK (Homo sapiens, UniProt P42679)
T5 construct: gene MATK
T5 sequence (P42679 whole entry): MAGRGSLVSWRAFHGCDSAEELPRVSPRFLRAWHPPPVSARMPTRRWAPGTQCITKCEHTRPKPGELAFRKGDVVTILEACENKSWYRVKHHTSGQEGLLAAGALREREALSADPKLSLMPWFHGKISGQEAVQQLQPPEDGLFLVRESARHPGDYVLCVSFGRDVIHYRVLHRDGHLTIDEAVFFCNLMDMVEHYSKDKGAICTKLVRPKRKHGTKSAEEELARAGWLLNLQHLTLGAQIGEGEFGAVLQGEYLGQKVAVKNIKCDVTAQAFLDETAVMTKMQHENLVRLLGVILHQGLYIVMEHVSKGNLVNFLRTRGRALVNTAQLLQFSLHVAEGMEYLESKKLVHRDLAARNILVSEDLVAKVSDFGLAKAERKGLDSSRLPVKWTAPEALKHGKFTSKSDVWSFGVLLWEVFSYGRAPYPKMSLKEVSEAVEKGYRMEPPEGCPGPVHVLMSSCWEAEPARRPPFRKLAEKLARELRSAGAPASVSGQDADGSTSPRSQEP
Description: as §1

[16] = target: PIM2 (Homo sapiens, UniProt Q9P1W9)
PIM2, sequence (Q9P1W9 whole entry): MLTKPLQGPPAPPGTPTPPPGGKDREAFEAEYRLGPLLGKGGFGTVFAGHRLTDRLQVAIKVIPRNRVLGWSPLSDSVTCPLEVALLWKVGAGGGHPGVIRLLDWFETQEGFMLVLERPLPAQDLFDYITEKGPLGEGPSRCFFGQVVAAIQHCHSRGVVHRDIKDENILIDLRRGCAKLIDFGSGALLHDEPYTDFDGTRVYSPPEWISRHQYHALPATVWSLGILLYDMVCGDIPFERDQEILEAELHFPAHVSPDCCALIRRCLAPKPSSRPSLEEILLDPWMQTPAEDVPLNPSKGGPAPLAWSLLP
Description: as §1

[17] = target: CAMK2B (Homo sapiens, UniProt Q13554)
Description: as §1

[18] = target: FGR (Homo sapiens, UniProt P09769)
FGR, sequence (P09769 whole entry): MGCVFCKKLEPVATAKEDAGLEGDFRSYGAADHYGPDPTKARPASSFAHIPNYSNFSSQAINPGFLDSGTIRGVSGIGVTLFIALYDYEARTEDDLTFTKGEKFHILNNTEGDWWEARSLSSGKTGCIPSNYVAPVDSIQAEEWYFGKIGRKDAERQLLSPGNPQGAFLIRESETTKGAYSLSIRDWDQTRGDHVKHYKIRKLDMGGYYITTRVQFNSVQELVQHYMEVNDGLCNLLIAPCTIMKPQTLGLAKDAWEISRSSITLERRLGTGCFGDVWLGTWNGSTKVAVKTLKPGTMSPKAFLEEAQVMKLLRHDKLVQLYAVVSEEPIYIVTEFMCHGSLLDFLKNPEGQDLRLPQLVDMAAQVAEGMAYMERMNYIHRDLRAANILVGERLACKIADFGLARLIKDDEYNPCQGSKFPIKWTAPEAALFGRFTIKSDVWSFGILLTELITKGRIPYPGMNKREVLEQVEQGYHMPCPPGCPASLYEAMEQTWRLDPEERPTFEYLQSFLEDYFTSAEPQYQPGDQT
Description: as §1

[19] = target: T6, DCAMKL2 (Homo sapiens, UniProt Q8N568)
T6 construct: gene DCLK2
T6 sequence (Q8N568 whole entry): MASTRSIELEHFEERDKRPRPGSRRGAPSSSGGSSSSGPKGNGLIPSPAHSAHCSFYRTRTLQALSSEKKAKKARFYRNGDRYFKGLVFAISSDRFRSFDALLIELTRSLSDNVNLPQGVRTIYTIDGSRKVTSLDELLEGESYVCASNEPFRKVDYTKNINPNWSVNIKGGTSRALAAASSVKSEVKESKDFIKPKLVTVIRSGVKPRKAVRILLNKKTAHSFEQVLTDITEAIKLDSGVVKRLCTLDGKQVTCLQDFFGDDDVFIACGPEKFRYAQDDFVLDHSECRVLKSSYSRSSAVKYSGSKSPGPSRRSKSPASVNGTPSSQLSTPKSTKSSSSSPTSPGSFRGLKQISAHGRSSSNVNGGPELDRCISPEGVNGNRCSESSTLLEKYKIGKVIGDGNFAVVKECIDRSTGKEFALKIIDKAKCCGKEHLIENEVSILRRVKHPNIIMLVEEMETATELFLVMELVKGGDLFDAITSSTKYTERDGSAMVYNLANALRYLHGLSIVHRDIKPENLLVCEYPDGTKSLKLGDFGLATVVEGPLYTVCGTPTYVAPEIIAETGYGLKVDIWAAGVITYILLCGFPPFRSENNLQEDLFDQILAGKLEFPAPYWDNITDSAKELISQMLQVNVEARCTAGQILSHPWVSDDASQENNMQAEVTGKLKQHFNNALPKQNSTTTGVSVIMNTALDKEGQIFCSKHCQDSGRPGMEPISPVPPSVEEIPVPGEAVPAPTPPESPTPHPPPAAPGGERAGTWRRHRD
Description: as §1

[20] = target: SRC (Homo sapiens, UniProt P12931)
Description: as §1

[21] = target: DMPK (Homo sapiens, UniProt Q09013)
Description: as §1

[22] = target: PAK2 (Homo sapiens, UniProt Q13177)
PAK2, sequence (Q13177 whole entry): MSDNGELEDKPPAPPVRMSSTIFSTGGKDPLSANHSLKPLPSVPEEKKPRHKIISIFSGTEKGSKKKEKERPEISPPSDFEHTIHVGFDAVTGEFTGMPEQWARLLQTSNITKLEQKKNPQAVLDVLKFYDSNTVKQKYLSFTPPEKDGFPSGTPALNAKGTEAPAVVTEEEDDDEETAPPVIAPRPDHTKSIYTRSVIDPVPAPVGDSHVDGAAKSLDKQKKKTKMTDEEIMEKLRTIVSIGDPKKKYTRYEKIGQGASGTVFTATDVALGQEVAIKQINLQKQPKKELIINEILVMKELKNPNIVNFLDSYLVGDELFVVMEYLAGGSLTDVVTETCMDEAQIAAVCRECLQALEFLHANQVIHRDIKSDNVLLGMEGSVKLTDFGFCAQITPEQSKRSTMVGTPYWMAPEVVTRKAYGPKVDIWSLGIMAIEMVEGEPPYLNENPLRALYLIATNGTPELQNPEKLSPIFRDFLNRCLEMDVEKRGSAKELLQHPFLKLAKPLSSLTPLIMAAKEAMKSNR
Description: as §1

SMILES: COc1cc2c(cn1)N(C)C(=O)[C@@H](NC(=O)c1nc3n(n1)[C@H](c1ccccc1)CC3)CC2 [GNE684, (S)-N-((S)-7-methoxy-1-methyl-2-oxo-2,3,4,5-tetrahydro-1H-pyrido[3,4-b]azepin-3-yl)-5-phenyl-6,7-dihydro-5H-pyrrolo[1,2-b][1,2,4]triazole-2-carboxamide]
- remaining binding at 10 µM [1]: 100%
- remaining binding at 10 µM [2]: 99%
- remaining binding at 10 µM [3]: 82%
- remaining binding at 10 µM [4]: 94%
- remaining binding at 10 µM [5]: 100%
- remaining binding at 10 µM [6]: 96%
- remaining binding at 10 µM [7]: 100%
- remaining binding at 10 µM [8]: 98%
- remaining binding at 10 µM [9]: 90%
- remaining binding at 10 µM [10]: 98%
- remaining binding at 10 µM [11]: 99%
- remaining binding at 10 µM [12]: 100%
- remaining binding at 10 µM [13]: 99%
- remaining binding at 10 µM [14]: 95%
- remaining binding at 10 µM [15]: 93%
- remaining binding at 10 µM [16]: 71%
- remaining binding at 10 µM [17]: 76%
- remaining binding at 10 µM [18]: 94%
- remaining binding at 10 µM [19]: 95%
- remaining binding at 10 µM [20]: 72%
- remaining binding at 10 µM [21]: 83%
- remaining binding at 10 µM [22]: 100%
